Values quoted from earlier work in patent US11524087B2, “Microwave assisted methods and systems for surface decontamination” (priority 2019, dated 2022).

## [O][Cl+][O-] [CD, chlorine dioxide]
15-minute
  short term exposure limit (STEL): 0.25 ppm
NIOSH
  immediately damaging to life and health (IDLH) level: 5 ppm
OSHA
  permissible exposure limit (PEL): 0.1 ppm
